ChEMBL document CHEMBL1140309, “p53 Activation by small molecules: application in oncology” (J Med Chem, 2005)

Molecular target: Tumour suppressor p53/oncoprotein Mdm2 (Homo sapiens, UniProt P04637+Q00987)
Test: Inhibitory activity against MDM2 (murine double minute-2 gene) binding to p53
Assay type: protein assay

Chain of Tumour suppressor p53/oncoprotein Mdm2 (P04637 whole entry): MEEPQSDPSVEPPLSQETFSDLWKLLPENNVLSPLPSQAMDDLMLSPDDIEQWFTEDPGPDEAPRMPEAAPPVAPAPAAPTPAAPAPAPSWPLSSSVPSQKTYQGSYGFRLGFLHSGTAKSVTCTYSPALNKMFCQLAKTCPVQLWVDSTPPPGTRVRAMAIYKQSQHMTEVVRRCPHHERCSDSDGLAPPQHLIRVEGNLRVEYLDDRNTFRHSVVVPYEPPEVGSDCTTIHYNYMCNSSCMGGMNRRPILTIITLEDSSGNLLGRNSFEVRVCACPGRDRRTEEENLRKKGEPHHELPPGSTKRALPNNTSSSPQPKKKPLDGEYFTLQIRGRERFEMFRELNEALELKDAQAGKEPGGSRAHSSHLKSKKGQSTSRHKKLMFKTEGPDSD
Chain of Tumour suppressor p53/oncoprotein Mdm2 (Q00987 whole entry): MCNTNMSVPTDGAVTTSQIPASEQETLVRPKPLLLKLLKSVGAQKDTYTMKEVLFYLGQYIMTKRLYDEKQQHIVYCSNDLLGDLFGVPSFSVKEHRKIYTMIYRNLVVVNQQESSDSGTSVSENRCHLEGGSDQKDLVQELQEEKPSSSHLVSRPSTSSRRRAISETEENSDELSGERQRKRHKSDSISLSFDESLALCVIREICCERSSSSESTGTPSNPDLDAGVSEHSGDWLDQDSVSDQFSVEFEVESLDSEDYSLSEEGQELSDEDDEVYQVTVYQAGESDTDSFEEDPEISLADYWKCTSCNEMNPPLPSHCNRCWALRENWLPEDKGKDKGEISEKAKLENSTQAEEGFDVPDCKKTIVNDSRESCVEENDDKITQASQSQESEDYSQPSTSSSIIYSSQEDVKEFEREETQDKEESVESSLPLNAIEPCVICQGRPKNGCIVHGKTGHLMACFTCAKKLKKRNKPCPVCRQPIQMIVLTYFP

IC50: 30 µM
Structure (SMILES): CC(C)Oc1ccc(C(=O)NS(=O)(=O)c2ccc(NN=C3C(=O)N(c4ccccc4)N(c4ccccc4)C3=O)cc2)cc1
